Experimental data reported in PubChem BioAssay (NCI).
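Five compound concentrations were applied to cells in 96-well plates for 48 hours; endpoints were derived by simple linear interpolation of the resulting dose-response curve. At the TGI there is no net growth.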

Legend:
Assay in all cases: inhibition of tumour cell growth, NCI panel, 48 h
OVCAR-3 ovarian = test system: OVCAR-3 ovarian
T-47D breast = test system: T-47D breast
BT-549 breast = test system: BT-549 breast
NCI-H226 lung = test system: NCI-H226 lung
OVCAR-8 ovarian = test system: OVCAR-8 ovarian
SF-539 CNS = test system: SF-539 CNS
COLO 205 colon = test system: COLO 205 colon
HCT-15 colon = test system: HCT-15 colon
HOP-92 NSCLC = test system: HOP-92 NSCLC
DU-145 prostate = test system: DU-145 prostate
SK-OV-3 ovarian = test system: SK-OV-3 ovarian
MDA-MB-231 breast = test system: MDA-MB-231 breast
NCI-H460 lung = test system: NCI-H460 lung
UO-31 renal = test system: UO-31 renal
K-562 leukemia = test system: K-562 leukemia
RPMI-8226 leukemia = test system: RPMI-8226 leukemia
786-0 renal = test system: 786-0 renal
KM12 colon = test system: KM12 colon
MDA-N = test system: MDA-N
TK-10 renal = test system: TK-10 renal
UACC-62 melanoma = test system: UACC-62 melanoma
HCT-116 colon = test system: HCT-116 colon
SK-MEL-5 melanoma = test system: SK-MEL-5 melanoma
MCF7 breast = test system: MCF7 breast
MDA-MB-435 = test system: MDA-MB-435
SF-295 CNS = test system: SF-295 CNS
IGROV1 ovarian = test system: IGROV1 ovarian
HL-60(TB) leukemia = test system: HL-60(TB) leukemia
CCRF-CEM leukemia = test system: CCRF-CEM leukemia
LOX IMVI melanoma = test system: LOX IMVI melanoma
CAKI-1 renal = test system: CAKI-1 renal
HOP-62 NSCLC = test system: HOP-62 NSCLC
NCI/ADR-RES ovarian = test system: NCI/ADR-RES ovarian
NCI-H23 lung = test system: NCI-H23 lung
A549 NSCLC = test system: A549 NSCLC
MOLT-4 leukemia = test system: MOLT-4 leukemia
SF-268 CNS = test system: SF-268 CNS
HT29 colon = test system: HT29 colon
SK-MEL-2 melanoma = test system: SK-MEL-2 melanoma
PC-3 prostate = test system: PC-3 prostate
U251 CNS = test system: U251 CNS
MALME-3M melanoma = test system: MALME-3M melanoma
SR leukemia = test system: SR leukemia
HCC-2998 colon = test system: HCC-2998 colon
HS 578T breast = test system: HS 578T breast
A498 renal = test system: A498 renal
UACC-257 melanoma = test system: UACC-257 melanoma
SNB-19 CNS = test system: SNB-19 CNS
SN12C renal = test system: SN12C renal
NCI-H522 lung = test system: NCI-H522 lung
ACHN renal = test system: ACHN renal
M14 melanoma = test system: M14 melanoma
EKVX NSCLC = test system: EKVX NSCLC
OVCAR-5 ovarian = test system: OVCAR-5 ovarian
SNB-75 CNS = test system: SNB-75 CNS
SW-620 colon = test system: SW-620 colon
SK-MEL-28 melanoma = test system: SK-MEL-28 melanoma
RXF 393 renal = test system: RXF 393 renal
OVCAR-4 ovarian = test system: OVCAR-4 ovarian

C/C(=N\O)c1ccc(Nc2nc3ccccc3c3occc23)cc1
TGI (OVCAR-3 ovarian): > 100 µM
TGI (T-47D breast): 32.7 µM
TGI (BT-549 breast): 53.1 µM
TGI (NCI-H226 lung): 10.8 µM
TGI (OVCAR-8 ovarian): 54.7 µM
TGI (SF-539 CNS): 37.1 µM
TGI (COLO 205 colon): 20 µM
TGI (HCT-15 colon): 7.77 µM
TGI (HOP-92 NSCLC): 52.4 µM
TGI (DU-145 prostate): 35.6 µM
TGI (SK-OV-3 ovarian): 57.4 µM
TGI (MDA-MB-231 breast): 8.22 µM
TGI (NCI-H460 lung): 4.34 µM
TGI (UO-31 renal): > 100 µM
TGI (K-562 leukemia): 6.04 µM
TGI (RPMI-8226 leukemia): 6.62 µM
TGI (786-0 renal): 9.93 µM
TGI (KM12 colon): 20.8 µM
TGI (MDA-N): 96.6 µM
TGI (TK-10 renal): 7.63 µM
TGI (UACC-62 melanoma): 61 µM
TGI (HCT-116 colon): 18 µM
TGI (SK-MEL-5 melanoma): 35.1 µM
TGI (MCF7 breast): 14.8 µM
TGI (MDA-MB-435): 44.9 µM
TGI (SF-295 CNS): 11.1 µM
TGI (IGROV1 ovarian): 29.6 µM
TGI (HL-60(TB) leukemia): 8.49 µM
TGI (CCRF-CEM leukemia): 27.7 µM
TGI (LOX IMVI melanoma): 32.8 µM
TGI (CAKI-1 renal): 7.28 µM
TGI (HOP-62 NSCLC): 27 µM
TGI (NCI/ADR-RES ovarian): 47.8 µM
TGI (NCI-H23 lung): 62.4 µM
TGI (A549 NSCLC): 34.8 µM
TGI (MOLT-4 leukemia): 13.6 µM
TGI (SF-268 CNS): 39.9 µM
TGI (HT29 colon): 2.68 µM
TGI (SK-MEL-2 melanoma): 51.5 µM
TGI (PC-3 prostate): 50.7 µM
TGI (U251 CNS): > 100 µM
TGI (MALME-3M melanoma): 61.3 µM
TGI (SR leukemia): 5.07 µM
TGI (HCC-2998 colon): 20.8 µM
TGI (HS 578T breast): 53.3 µM
TGI (A498 renal): 37.8 µM
TGI (UACC-257 melanoma): 48.2 µM
TGI (SNB-19 CNS): > 100 µM
TGI (SN12C renal): 56.3 µM
TGI (NCI-H522 lung): 9.47 µM
TGI (ACHN renal): 47.7 µM
TGI (M14 melanoma): 22.4 µM
TGI (EKVX NSCLC): > 100 µM
TGI (OVCAR-5 ovarian): > 100 µM

O=C1Nc2ccccc2C1=Nc1ccc(S(=O)(=O)Nc2nccs2)cc1
TGI (OVCAR-3 ovarian): > 100 µM
TGI (T-47D breast): > 100 µM
TGI (BT-549 breast): > 100 µM
TGI (NCI-H226 lung): > 100 µM
TGI (OVCAR-8 ovarian): > 100 µM
TGI (SF-539 CNS): > 100 µM
TGI (COLO 205 colon): > 100 µM
TGI (HCT-15 colon): > 100 µM
TGI (SNB-75 CNS): > 100 µM
TGI (HOP-92 NSCLC): > 100 µM
TGI (SW-620 colon): > 100 µM
TGI (DU-145 prostate): > 100 µM
TGI (SK-OV-3 ovarian): > 100 µM
TGI (MDA-MB-231 breast): > 100 µM
TGI (NCI-H460 lung): > 100 µM
TGI (SK-MEL-28 melanoma): > 100 µM
TGI (UO-31 renal): > 100 µM
TGI (K-562 leukemia): > 100 µM
TGI (786-0 renal): > 100 µM
TGI (KM12 colon): > 100 µM
TGI (MDA-N): > 100 µM
TGI (TK-10 renal): > 100 µM
TGI (UACC-62 melanoma): > 100 µM
TGI (HCT-116 colon): > 100 µM
TGI (RXF 393 renal): > 100 µM
TGI (SK-MEL-5 melanoma): > 100 µM
TGI (MCF7 breast): > 100 µM
TGI (MDA-MB-435): > 100 µM
TGI (SF-295 CNS): > 100 µM
TGI (IGROV1 ovarian): > 100 µM
TGI (HL-60(TB) leukemia): > 100 µM
TGI (CCRF-CEM leukemia): > 100 µM
TGI (LOX IMVI melanoma): > 100 µM
TGI (CAKI-1 renal): > 100 µM
TGI (HOP-62 NSCLC): > 100 µM
TGI (NCI/ADR-RES ovarian): > 100 µM
TGI (OVCAR-4 ovarian): > 100 µM
TGI (NCI-H23 lung): > 100 µM
TGI (A549 NSCLC): > 100 µM
TGI (MOLT-4 leukemia): > 100 µM
TGI (SF-268 CNS): > 100 µM
TGI (HT29 colon): > 100 µM
TGI (SK-MEL-2 melanoma): > 100 µM
TGI (PC-3 prostate): > 100 µM
TGI (U251 CNS): > 100 µM
TGI (MALME-3M melanoma): > 100 µM
TGI (SR leukemia): > 100 µM
TGI (HCC-2998 colon): > 100 µM
TGI (HS 578T breast): > 100 µM
TGI (A498 renal): > 100 µM
TGI (UACC-257 melanoma): > 100 µM
TGI (SNB-19 CNS): > 100 µM
TGI (SN12C renal): > 100 µM
TGI (NCI-H522 lung): > 100 µM
TGI (ACHN renal): > 100 µM
TGI (M14 melanoma): > 100 µM
TGI (EKVX NSCLC): > 100 µM
TGI (OVCAR-5 ovarian): > 100 µM
